One assay has as its target Bcl-2-IP3R interaction (Homo sapiens, UniProt P10415). The assay can be described thus: coimmunoprecipitation of Bcl-2 with IP3R from cell extracts. Conditions: 400 μM peptide; Bcl-2(+) WEHI7.2 and Jurkat cell extracts. Also noted: expressed in transfected cells; host or cells: Bcl-2(+) WEHI7.2 cells; also Jurkat cells (endogenous Bcl-2). It is filed as binding. As for the experimental part:
FIG. 4 illustrates an IP3R Peptide Inhibits Bcl-2-IP3R Interaction but Not Bim-Bcl-2 Interaction. (A and D) IP3R was immunoprecipitated from extracts of Bcl-2(+) WEHI7.2 cells (C) or Jurkat cells in the presence of 400 μM peptides. Peptide 2, but not peptide 1 or control peptide, inhibited the Bcl-2-IP3R coimmunoprecipitation. Summary of Bcl-2 immunoblot signal intensities in three […] experiments identical to (C) (mean±SEM). (B) Bcl-2 was immunoprecipitated from Bcl-2(+) WEHI7.2 cell extracts in the presence of 400 μM peptides, and coimmunoprecipitation of Bim was detected by anti-Bim immunoblotting. […] (E) Summary of Bim immunoblot signal intensities in three experiments identical to (B) (mean±SEM).
Since the IP3R binding region was narrowed down to the 80 amino acid subdomain 3a1 (aa 1347-1426), we designed two 20 amino acid peptides (peptide 1, aa 1365-1384 (SEQ ID NO:2); peptide 2, aa 1389-1408 (SEQ ID NO:3)) based on the degree of homology in this region among different IP3R isoforms. […] The inhibitory effect of peptide 2 on Bcl-2-IP3R interaction was also detected in coimmunoprecipitation assays employing both Bcl-2(+) WEHI7.2 cells (FIGS. 4A and 4B) and Jurkat cells (FIG. 4C). […]

Assay [1] concerns primary chronic lymphocytic leukemia cells. The assay can be described thus: cell killing by trypan blue dye exclusion, combination with ABT737. It is filed as cell-based. To be noted: primary CLL cells, peptide combined with ABT737, 24 hours. The text has this: FIG. 10 illustrates a graph comparing the cell death percentage of chronic lymphocytic leukemia cells treated with combinations of ABT-737 and a peptide comprising SEQ ID NO: 3 and controls.
FIG. 11 illustrates a graph comparing the cell death percentage of chronic lymphocytic leukemia cells treated with ABT-737, a peptide comprising SEQ ID NO: 3, combinations thereof, and controls.
To test this hypothesis, we performed the experiments summarized below. […] Additions were made to CLL cells and cell death measured 24 hours later.

The subject of another assay is IP3R type 1 channel. The assay is described as follows: single IP3R channel activity in planar lipid bilayers. To be noted: 2 μM IP3, 250 nM Ca2+. It is filed as biochemical. As for the experimental part:
FIG. 5 illustrates a summary of multiple experiments (mean±SEM) measuring effects of Bcl-2 and peptides on IP3R channel open probability. n=number of individual channels examined. Symbols represent mean±SEM. *p<0.05.
The effects of peptide 2 and purified Bcl-2 on IP3R channel activity were analyzed in planar lipid bilayers under steady-state conditions. Single IP3R type 1 channel activity was visualized as a series of discrete positive current fluctuations in the presence of 2 μM IP3 and 250 nM Ca^2+ in the cis compartment (cytoplasmic side of channel). A significant reduction in single channel activity was observed after adding 0.1 μM purified Bcl-2 to the cytoplasmic face of the IP3R channel, and addition of 10 μM peptide 2 reversed Bcl-2's inhibitory effect on channel activity. Average open probabilities under various conditions were calculated from multiple repeated experiments (FIG. 5). Addition of Bcl-2 reduced IP3R open probability by 11.5-fold to 0.018.

The subject of assay [2] is Jurkat cells. The assay can be described thus: Fas-induced Ca2+-independent apoptosis. Type of assay: cell-based.
In assay [3] the test system is Jurkat cells. The assay is described as follows: anti-CD3-induced apoptosis (apoptotic nuclei). It is filed as cell-based. Here is the method:
FIG. 7 illustrates peptide 2 Enhances Anti-CD3-Induced Apoptosis in Bcl-2-Positive Cells (A) Typical apoptotic nuclear morphology (arrow, Hoechst 33342 stain) 24 hr after 5 μg/ml anti-CD3 treatment of Jurkat cells. Scale bars, 10 μm. (B) Bcl-2(−) and Bcl-2(+) WEHI7.2 cells were pre-incubated±60 μM peptides plus Chariot reagent and then incubated with 20 μg/ml anti-CD3 for 24 hr. Symbols represent the percentage of cells (mean±SEM) with apoptotic nuclei in three experiments for Bcl-2(−) and five experiments for Bcl-2(+) cells (200 cells counted per coverslip). (C) Jurkat cells were pre-incubated±60 μM peptides±Chariot reagent and then incubated with 5 μg/ml anti-CD3 for 24 hr. Symbols represent the percentage of cells (mean±SEM) with apoptotic nuclei in five experiments (240 cells counted per coverslip).
Peptide 2 also attenuated Bcl-2's inhibition of anti-CD3-induced apoptosis in Jurkat cells. In preliminary studies (data not shown), we tested several anti-CD3 concentrations. Higher concentrations of anti-CD3 induced high levels of apoptosis that might obscure the effect of the peptide. We therefore used 5 μg/ml anti-CD3, sufficient to induce 20%-30% apoptosis.

For assay [4], the system named is Jurkat cells. The assay can be described thus: IP3 ester-induced Ca2+ elevation. Conditions: D-myo InsP3 hexakisbutyryloxymethyl ester. Type of assay: cell-based. The source says: To exclude the possibility that peptide 2 may interfere with the upstream TCR activation pathway, a cell-permeant IP3 ester (D-myo InsP3 hexakisbutyryloxymethyl ester) was used to bypass TCR activation and anti-CD3-induced IP3 generation.

These results are taken from patent US8445441B2, “Inhibitors of BCL-2” (Case Western Reserve University, priority 2007, dated 2013).

Chain of Bcl-2-IP3R interaction (P10415 whole entry): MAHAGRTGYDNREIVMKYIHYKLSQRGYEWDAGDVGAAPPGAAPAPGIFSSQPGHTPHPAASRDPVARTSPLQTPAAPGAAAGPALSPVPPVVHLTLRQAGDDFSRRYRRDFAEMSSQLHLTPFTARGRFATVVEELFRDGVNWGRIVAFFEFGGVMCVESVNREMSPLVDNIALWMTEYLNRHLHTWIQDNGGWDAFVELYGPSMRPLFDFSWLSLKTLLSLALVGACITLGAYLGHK

Take “NVYTEIKCNSLLPLDDIVRV (listed as Homo sapiens) [peptide 2, 20 amino acid peptide, aa 1389-1408 of IP3R subdomain 3a1]”: the “inhibition of Bcl-2-IP3R coimmunoprecipitation” value with Bcl-2-IP3R interaction is on record as “consistently inhibited”. Further, the “cell death induction by ABT737” value in assay [1] was “enhances cell death induction”. The IP3R open probability in the assay on IP3R type 1 channel (10 μM peptide after 0.1 μM purified Bcl-2, Bcl-2 alone 0.018) was found to be 0.16. Also, in the assay on IP3R type 1 channel (after 0.1 μM purified Bcl-2), the “reversal of Bcl-2's inhibitory effect on channel activity” value was “reversed”. In the assay with Jurkat cells [2], the “enhancement of Fas-induced Ca2+-independent apoptosis” value was “did not enhance”. For the same sequence, in the assay with Jurkat cells [3] (60 μM peptide with Chariot, 5 μg/ml anti-CD3, 24 hr, anti-CD3 alone 20%-30%), the “anti-CD3-induced apoptosis (percentage of apoptotic cells)” value is recorded as 40%-45%. In addition, the “effect on anti-CD3-induced apoptosis” value with Jurkat cells [3] (peptide in the absence of Chariot reagent) is listed as “did not have an effect”. For the same sequence, the “IP3 ester-induced Ca2+ elevation” value in the assay with Jurkat cells [4] is “enhanced”.
